Results taken from patent publication US20240238314A1, “TREATMENT OF ESSENTIAL TREMOR” (Sage Therapeutics, Inc., priority 2021, published 2024).

Tests used:
[1] = system: individuals with essential tremor; experiment: Phase 2 study, Compound 1 60 mg once daily for 28 days: TETRAS performance subscale part 4/6/7/8 total score; format: in vivo, human; settings: Full Analysis Set
Method: 4) Upper limb tremor: Tremor is assessed during three maneuvers: forward horizontal reach posture, lateral “wing beating” posture and finger-nose-finger testing. Each upper limb is assessed and scored individually. The forward horizontal reach posture is held for 5 seconds. The lateral wing beating posture is held for 20 seconds. The finger-nose-finger movement is executed three times. Amplitude assessment should be estimated using the maximally displaced point of the hand at the point of greatest displacement along any single plane. For example, the amplitude of a pure supination-pronation tremor, pivoting around the wrist would be assessed at either the thumb or fifth digit.
The lines of the spiral should be approximately 1.3 cm (0.5 inch) apart. Then ask the subject to copy the spiral. Test and score each hand separately. Use a ballpoint pen. The pen should be held such that no part of the limb touches the table. Secure the paper on the table in a location that is suitable for the patient's style of drawing. Score the tremor in the spiral, not the movement of the limb. Each limb is assessed and scored individually. 0=normal. 1=slight: tremor barely visible. 2=mild: obvious tremor. 3=moderate: portions of figure not recognizable. 4=severe: figure not recognizable.
7) Handwriting: Have patient write the standard sentence “This is a sample of my best handwriting” using the dominant hand only. Patients must write cursively (i.e., no printing). They cannot hold or stabilize their hand with the other hand. Use a ballpoint pen. Secure the paper on the table in a location that is suitable for the patient's style of writing. Score the tremor in the writing, not the movement of the limb. 0=normal. 1=slight: untidy due to tremor that is barely visible. 2=mild: legible, but with considerable tremor. 3=moderate: some words illegible. 4=severe: completely illegible.
8) Dot approximation task: The examiner makes a dot or X and instructs the subject to hold the tip of the pen “as close as possible to the dot (or center of an X) without touching it, (ideally approximately 1 mm) for 10 seconds.” Each hand is scored separately. 0=no tremor. 1=tremor is barely visible. 1.5=tremor is visible, but less than 1 cm. 2=tremor is 1-<3 cm amplitude. 2.5=tremor is 3-<5 cm amplitude. 3=tremor is 5-<10 cm amplitude. 3.5=tremor is 10-<20 cm amplitude. 4=tremor is >20 cm amplitude.
(§1) Participants were 18 to 80 years of age, inclusive, diagnosed of ET of at least 3 years duration with scores of at least 1.5 for each of the six items that comprised the combined total upper limb TETRAS (total performance subscale part 4) with the total score for the dominant upper limb (the sum of the 3 items for either the right or left upper limb, whichever is dominant) being at least 5.5, at both Screening and predose on Day 1.
(§2) Participants were randomized to receive Compound 1 60 mg or placebo once daily in the morning on a 1:1 basis. If participants reported a TEAE considered by investigator to be related to Compound 1 and not tolerable, investigator might reduce the dose of Compound 1 from 60 mg in 15 mg decrements (i.e., 60 mg, to 45 mg, to 30 mg), as medically appropriate. If intolerable TEAEs persist at the 30 mg dose, Compound 1 was permanently stopped.
(§3) This study included a Screening Period of up to 28 days, a 29-day treatment period consisting of 28 days of dosing with the end of treatment visit intended to be on Day 29 at trough, and a 14-day follow-up period relative to final dose. Study patients were not taking other medications for essential tremor during the 28-day treatment period.
Similarly, an MMRM was be used for the analysis of the following variables: changes from baseline in TETRAS performance subscale part 4, 6, 7, and 8 combined score, and TETRAS ADL score. For each model, the comparison of interest was between Compound 1 tablets and matching placebo at the 15-day time point. […]

[2] = system: individuals with essential tremor; experiment: Phase 2 study, Compound 1 60 mg once daily for 28 days: TETRAS ADL total score; format: in vivo, human
Description: As used herein, “The Essential Tremor Rating Assessment Scale (TETRAS) activities of daily living (ADL) subscale total score” refers to an assessment scale for essential tremor developed by The Tremor Research Group (Elble, R. J., J. Neurol. Neuromedicine 1(4):34-38 (2016); Elble, R. J. et. al., Mov. Disord. 27(12); 1567-1569 (2012)). The TETRAS ADL subscale includes 12 metrics or characteristics, wherein each metric or characteristic is scored 0, 1, 2, 3, or 4 based on the severity of the characteristic present in the subject. Scores for each of the 12 characteristics are then added to give a total score of no greater than 48. The 12 characteristics scored in the TETRAS ADL subscale total score include:
as §1, §2, §3
Similarly, an MMRM was be used for the analysis of the following variables: changes from baseline in TETRAS performance subscale part 4, 6, 7, and 8 combined score, and TETRAS ADL score. For each model, the comparison of interest was between Compound 1 tablets and matching placebo at the 15-day time point. Model-based point estimates (i.e., LS means), 95% confidence intervals, and p-values were reported.

[3] = Baseline TETRAS ADL < 28, Day 29
[4] = Baseline TETRAS ADL ≥ 28, Day 29

SMILES: COC[C@@]1(O)CC[C@H]2[C@@H](CC[C@@H]3[C@@H]2CC[C@]2(C)[C@@H](C(=O)Cn4nnc(C)n4)CC[C@@H]32)C1 [Compound 1]
- LSMean difference vs placebo in change from baseline in TETRAS performance subscale part 4/6/7/8 total score ([1]; Day 8): −1.22
- Model-based LSMean (SE) change from baseline in TETRAS performance subscale part 4/6/7/8 total score ([1]; Day 8): −2.84 (0.579)
- LSMean difference vs placebo in change from baseline in TETRAS performance subscale part 4/6/7/8 total score ([1]; Day 15, 5 hr postdose): −1.03
- Model-based LSMean (SE) change from baseline in TETRAS performance subscale part 4/6/7/8 total score ([1]; Day 15, 5 hr postdose): −4.59 (0.840)
- LSMean difference vs placebo in change from baseline in TETRAS performance subscale part 4/6/7/8 total score ([1]; Day 15, 8 hr postdose): −0.23
- Model-based LSMean (SE) change from baseline in TETRAS performance subscale part 4/6/7/8 total score ([1]; Day 15, 8 hr postdose): −3.75 (0.755)
- LSMean difference vs placebo in change from baseline in TETRAS performance subscale part 4/6/7/8 total score ([1]; Day 15, predose): −0.55
- Model-based LSMean (SE) change from baseline in TETRAS performance subscale part 4/6/7/8 total score ([1]; Day 15, predose): −2.63 (0.671)
- LSMean difference vs placebo in change from baseline in TETRAS performance subscale part 4/6/7/8 total score ([1]; Day 22): −0.77
- Model-based LSMean (SE) change from baseline in TETRAS performance subscale part 4/6/7/8 total score ([1]; Day 22): −2.93 (0.691)
- LSMean difference vs placebo in change from baseline in TETRAS performance subscale part 4/6/7/8 total score ([1]; Day 29): −0.59 (−2.45, 1.28)
- Model-based LSMean (SE) change from baseline in TETRAS performance subscale part 4/6/7/8 total score ([1]; Day 29): −2.81 (0.699)
- LSMean difference vs placebo in change from baseline in TETRAS performance subscale part 4/6/7/8 total score ([1]; Day 29, listed as Cmpd 1): −0.59
- LSMean difference vs placebo in change from baseline in TETRAS performance subscale part 4/6/7/8 total score ([1]; Day 42): 1.96
- Model-based LSMean (SE) change from baseline in TETRAS performance subscale part 4/6/7/8 total score ([1]; Day 42): −1.17 (0.673)
- LSMean (SE) CFB in TETRAS ADL total score [2, 3]: −2.84
- LSMean Difference (CI) vs placebo in CFB in TETRAS ADL total score [2, 3]: −1.17
- Mean (SD) % CFB in TETRAS ADL total score [2, 3]: −16.52%
- LSMean (SE) CFB in TETRAS ADL total score [2, 4]: −5.67
- Mean (SD) % CFB in TETRAS ADL total score [2, 4]: −18.10%
- Model-based LSMean (SE) change from baseline in TETRAS ADL total score ([2]; Full Analysis Set, Day 8): −5.34 (0.845)
- LSMean difference vs placebo in change from baseline in TETRAS ADL total score ([2]; Full Analysis Set, Day 15): −2.95
- Model-based LSMean (SE) change from baseline in TETRAS ADL total score ([2]; Full Analysis Set, Day 15): −5.43 (0.945)
- LSMean difference vs placebo in change from baseline in TETRAS ADL total score ([2]; Full Analysis Set, Day 22): −2.56
- Model-based LSMean (SE) change from baseline in TETRAS ADL total score ([2]; Full Analysis Set, Day 22): −5.24 (0.904)
- Mean (SD) % CFB in TETRAS ADL total score ([2]; Full Analysis Set, Day 29): −17.4%
- Model-based LSMean (SE) change from baseline in TETRAS ADL total score ([2]; Full Analysis Set, Day 29): −4.24 (0.940)
- LSMean difference vs placebo in change from baseline in TETRAS ADL total score ([2]; Full Analysis Set, Day 29, listed as Cmpd 1): −1.37
- LSMean difference vs placebo in change from baseline in TETRAS ADL total score ([2]; Full Analysis Set, Day 42): 1.13
- Model-based LSMean (SE) change from baseline in TETRAS ADL total score ([2]; Full Analysis Set, Day 42): −2.14 (0.905)
